# Experimental data reported in paper PMC5662925, “Selective Targeting of Bromodomains of the Bromodomain-PHD Fingers Family Impairs Osteoclast Differentiation” (ACS Chemical Biology, 2017).
# Key:
# [1] = tested on: osteoclast marker genes (TRAP, CATK, CA2, NFATC1, OC-STAMP) in murine BMCs; assay: qPCR of osteoclast marker genes in murine BMCs; type: cell-based, mouse; conditions: 10 ng/mL RANKL, 1 μM and 2 μM, 0-3 days
# [2] = tested on: MMP9 secretion by human RANKL-induced osteoclasts; assay: MMP9 ELISA of human osteoclast supernatant; type: cell-based; conditions: 1.25 μM, 7 days or 11 days
# BRPF2 = biological target: T1, BRPF2 (Homo sapiens, UniProt O95696); assay: Isothermal titration calorimetry (ITC); type: binding; conditions: ITC data
# T1 construct: All recombinant bromodomains were expressed as described in Filippakopoulos et al; made in house
# T1 sequence (O95696 562-666 limits assumed): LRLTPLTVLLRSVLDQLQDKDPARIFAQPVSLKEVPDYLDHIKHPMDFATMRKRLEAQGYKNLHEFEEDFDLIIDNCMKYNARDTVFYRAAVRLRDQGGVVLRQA
# [3] = tested on: human primary monocytes (PBMCs) differentiated with RANKL; assay: Human osteoclast differentiation (TRAP-positive multinucleated cells)
# [4] = tested on: human osteoclast-like cells on dentine slices; assay: Bone resorption on dentine slices; conditions: 1 μM
# [5] = tested on: human osteoclast-like cells on bone mineral substrate; assay: Bone resorption, Osteosurface assay (hydroxyapatite); type: cell-based
# Text: Dentine pits were imaged with confocal microscopy.
# [6] = tested on: primary murine bone marrow cells differentiated with RANKL; assay: Murine osteoclast differentiation, TRAP stain; type: cell-based, mouse
# Text: Epigenetic mechanisms play an important role in patterning and differentiation processes, and BRPF and its associated HATs have been particularly associated with differentiation of hematopoietic cells. Given our interest in bone biology, and the hematopoietic origin of the osteoclast, we investigated the potential role of the targeted bromodomains in osteoclastogenesis in mouse and human cells. Bone marrow mononuclear cells were isolated from wild-type mice, cultivated for 5 days in the presence of CSF-1, and replated in the presence of RANKL for differentiation into osteoclasts,[28] either with DMSO as a control or with varying doses of the BRPF inhibitors. […] To understand the molecular basis for this observation, we investigated the expression of several osteoclast marker genes using qPCR. […] To further investigate other osteoclast-specific effects of the BRPF inhibitors on gene transcription, we profiled genome-wide expression with Illumina MouseWG-6 v2.0 Expression BeadChips at different time points.
# [7] = tested on: NFATC1 protein level in murine BMCs; assay: Western blot of NFATC1 in murine BMCs; type: cell-based, mouse; conditions: 10 ng/mL RANKL, 1 μM and 2 μM
# Text: Figure 5 BRPF1B binding partners and effect of BRPF bromodomain inhibition on gene transcription during mouse osteoclastogenesis. […] The color of the circle represents the absolute spectral counts observed for the prey proteins. The circle size indicates the quantitative enrichment of a prey across all baits tested while the estimated FDR for the interaction is shown as the color of the circle edge. (B) Inhibition of murine osteoclast differentiation by panBRPF bromodomain inhibition. […] Bar scale indicates 200 μm. […] Data were normalized to day 0 of RANKL treatment. […] LaminB1 was used as a loading control.
# Murine osteoclast-like cells were PBS washed, homogenized and lysed in RIPA buffer (50 mM Tris-HCl, pH 7.4; 150 mM NaCl; 1% NP-40; 0.5% Na-deoxycholate; 0.1% SDS; 2 mM EDTA; 10 mM NaF) containing protease inhibitors (Pierce, according to manufacturer’s specifications) with a 1 mL syringe and a 23-gauge needle. After centrifugation at 15 000 rpm at 4 °C for 10 min, supernatants were frozen at −80 °C. Protein concentrations were assayed using a Pierce BCA Kit, and 30 μg of protein per lane was subjected on 10% SDS gel. […] Absorbance was measured at 440 nm.
# [8] = tested on: murine monocytic RAW246.7 cells; assay: Proliferation / cell count of RAW cells; type: cell-based, mouse; conditions: 72 h treatment, 10 µM, n = 4, t-test p = 0.73
# Procedure: Supplementary Figure 4: Inhibition of murine osteoclast differentiation. A) TRAP stain of primary murine bone marrow cells (BMCs) differentiated into osteoclasts for 3 days with RANKL plus either the treatment with DMSO or NIL57 at 1 µM. Bar scale indicates 200 µm. […]
# treated bone marrow cells after 1, 2 and 3 days of differentiation as compared to bone marrow cells before RANKL treatment start. C.) Count of RAW cells after 72 h treatment […]
# content of primary mouse BMCs treated for 0, 1, 2 and 3 days with either without or with 1
# [9] = tested on: RANKL-induced expression of Ppap2a and SphK1; assay: Microarray genome-wide expression in murine BMCs; type: cell-based, mouse; conditions: 2 μM
# Procedure: (A) Heat map of the top 25 significant differentially expressed genes between DMSO and OF-1-treated BMCs based on sorted average p-value for the time points 48 and 72 h. Red indicates higher; blue indicates lower expression. See also, Supporting Information Figures 3 and 4.
# Murine bone marrow stem cells were differentiated into osteoclast-like cells as described above. Cells were PBS-washed and lysed in RLT-Buffer (including 2-Mercaptoethanol; Qiagen, UK), and RNA was isolated via RNeasy Plus Mini Kit (Quiagen, UK). After confirmation of RNA quality (RIN = 2 ± 0.1), cDNA synthesis of approximately 1000 ng of RNA with a High Capacity cDNA Reverse Transcription Kit (Applied Biosystems, UK) was carried out. A total of 500 ng/μL cDNA was subjected to MouseWG-6 v2.0 Expression BeadChips (Illumina) at the Department of Pathology, University of Cambridge. Microarray data are available in the ArrayExpress database (www.ebi.ac.uk/arrayexpress) under accession number E-MTAB-4155. Gene expression data underwent log2 transformation and quantile normalization. Genes were filtered based on their variation across the experiments, i.e., excluding genes with a standard deviation of expression lower than 0.1. For genes with multiple probes, only the highest variable probe was selected for further analysis. […]
# BRD4(1) = BRD4(1) (Homo sapiens, UniProt O60885); assay: Temperature shift assay (ΔTm); type: binding; conditions: 10 µM compound
weaker potency for BRPF2 (vs BRPF1B) (BRPF2),ΔTm at 10 µM (BRD4(1)),Compound,expression of osteoclast marker genes (qPCR) [1],MMP9 secretion [2],fusion into multinucleated osteoclast-like cells [3],resorption of dentine [4],pit formation on hydroxyapatite (Osteosurface assay) [5],number of multinucleated TRAP positive cells [6],NFATC1 protein level [7],Count of RAW cells vs DMSO [8],RANKL-induced expression of Ppap2a and SphK1 [9]
5 fold,2.1 °C,COc1cc2c(cc1NS(=O)(=O)c1ccc(Br)cc1C)n(C)c(=O)n2C [OF-1],significant reductions,significant reductions,completely suppress,complete block,significant reduction,significant reductions,strong down-regulation,no significant difference,significantly down-regulated
,,COc1ccccc1C(=O)Nc1cc2c(cc1N1CCCC1)n(C)c(=O)n2C [PFI-4],,significant reductions,,,,,,,
